Reference: BindingDB's records for patent US20240383893 (Haihe Biopharma, 2024)

Target: T1, Ectonucleotide pyrophosphatase/phosphodiesterase family member 1 (Homo sapiens, UniProt P22413)
T1 sequence (P22413 whole entry): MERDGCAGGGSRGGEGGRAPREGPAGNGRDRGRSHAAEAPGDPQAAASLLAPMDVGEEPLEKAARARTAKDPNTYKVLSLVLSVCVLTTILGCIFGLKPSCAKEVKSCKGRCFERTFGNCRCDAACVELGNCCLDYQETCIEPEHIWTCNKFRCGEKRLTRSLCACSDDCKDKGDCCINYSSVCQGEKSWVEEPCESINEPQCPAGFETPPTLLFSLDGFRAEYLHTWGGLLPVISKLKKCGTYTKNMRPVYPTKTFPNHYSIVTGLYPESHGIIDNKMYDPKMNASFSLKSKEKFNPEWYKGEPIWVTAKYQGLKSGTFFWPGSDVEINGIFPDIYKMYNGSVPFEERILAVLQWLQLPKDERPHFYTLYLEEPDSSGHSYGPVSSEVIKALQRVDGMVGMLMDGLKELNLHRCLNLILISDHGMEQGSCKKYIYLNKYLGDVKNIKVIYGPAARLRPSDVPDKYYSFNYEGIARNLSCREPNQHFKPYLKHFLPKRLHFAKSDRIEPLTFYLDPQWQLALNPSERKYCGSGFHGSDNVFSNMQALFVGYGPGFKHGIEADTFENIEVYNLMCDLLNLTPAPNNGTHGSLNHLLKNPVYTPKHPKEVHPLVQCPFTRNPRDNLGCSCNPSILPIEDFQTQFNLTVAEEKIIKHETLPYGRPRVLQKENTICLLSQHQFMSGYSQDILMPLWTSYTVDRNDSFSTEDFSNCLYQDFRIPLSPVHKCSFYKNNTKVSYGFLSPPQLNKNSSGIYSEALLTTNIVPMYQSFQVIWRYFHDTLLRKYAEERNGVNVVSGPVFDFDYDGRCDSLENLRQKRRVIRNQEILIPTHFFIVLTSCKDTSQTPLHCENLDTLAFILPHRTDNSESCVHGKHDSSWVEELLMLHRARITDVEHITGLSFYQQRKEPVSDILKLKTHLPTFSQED
Test: ENPP1 Inhibitory Activity Assay

Row | IC50 [nM] | Compound
1 | 6.9 | COc1ccc2c(Oc3ccc(C(C(=O)NO)C(C)C)cc3)ccnc2n1 (configuration not stated) [US20240383893, Compound 130]
2 | 23 | COc1ccc2c(Oc3ccc(C(C)(C(=O)NO)C(C)C)cc3)ccnc2n1 (configuration not stated) [US20240383893, Compound 165]
